Results on 10 compounds are retold here after ChEMBL document CHEMBL5532713, “Ergone Derivatives from the Deep-Sea-Derived Fungus Aspergillus terreus YPGA10 and 25,28-Dihydroxyergone-Induced Apoptosis in Human Colon Cancer SW620 Cells” (J Nat Prod, 2024).

Data set [1] has as its system SW-620. Kind of data set: Antiproliferative activity against human SW-620 cells assessed as reduction in cell viability incubated for 48 hrs by CCK-8 assay. In kind it is functional, cell-based. The settings on record: for IC50: SW-620, 48 h.
Data set [2] has as its system U-937. Briefly: Effect on cell survival in RSL3-induced human U-937 cells at 50 uM. In kind it is functional, cell-based.
The subject of data set [3] is SW-620. Kind of data set: Antiproliferative activity against human SW-620 cells assessed as reduction in cell viability at 40 uM incubated for 48 hrs by CCK-8 assay. In kind it is functional, cell-based.
The next data set deals with MDA-MB-231. Kind of data set: Antiproliferative activity against human MDA-MB-231 cells assessed as reduction in cell viability by CCK-8 assay. The class given is functional, cell-based. The settings on record: dose 40.0 µM, time 48.0 hrs.
Another data set has as its system MCF7. Kind of data set: Antiproliferative activity against human MCF7 cells assessed as reduction in cell viability by CCK-8 assay. The class given is functional, cell-based. The settings on record: dose 40.0 µM, time 48.0 hrs.
Another data set has as its system PANC-1. Briefly: Antiproliferative activity against human PANC-1 cells assessed as reduction in cell viability by CCK-8 assay. The class given is functional, cell-based.
The test system of a further data set is SMMC-7721. Briefly: Antiproliferative activity against human SMMC-7721 cells assessed as reduction in cell viability by CCK-8 assay. In kind it is functional, cell-based.
The test system of another data set is A549. Kind of data set: Antiproliferative activity against human A549 cells assessed as reduction in cell viability by CCK-8 assay. In kind it is functional, cell-based.
Data set [4] is described as follows: Cytotoxicity against human BEAS-2B cells assessed as inhibition of cell growth at 40 uM incubated for 48 hrs by CCK-8 assay relative to control. The class given is toxicity, cell-based.
The test system of data set [5] is U-937. Kind of data set: Antiproliferative activity against human U-937 cells assessed as reduction in cell viability incubated for 48 hrs by CCK-8 assay. In kind it is toxicity, cell-based. The settings on record: u-937, 48 h, 50 µM.
A further data set deals with CCRF-CEM. Briefly: Antiproliferative activity against human CCRF-CEM cells assessed as reduction in cell viability incubated for 48 hrs by CCK-8 assay. In kind it is functional, cell-based.
The test system of the next data set is Jurkat. Briefly: Antiproliferative activity against human Jurkat cells assessed as reduction in cell viability incubated for 48 hrs by CCK-8 assay. In kind it is functional, cell-based.
A further data set deals with THP-1. Kind of data set: Antiproliferative activity against human THP-1 cells assessed as reduction in cell viability incubated for 48 hrs by CCK-8 assay. In kind it is functional, cell-based. The settings on record: THP-1, 48 h.
The next data set deals with K562. Kind of data set: Antiproliferative activity against human K562 cells assessed as reduction in cell viability incubated for 48 hrs by CCK-8 assay. The class given is functional, cell-based. The settings on record: K562, 48 h.
Data set [6] relates to U-937. Kind of data set: Inhibition of RSL3-induced ferroptosis in human U-937 cells. In kind it is functional, cell-based.
Data set [7] has as its system SW-620. Kind of data set: Antiproliferative activity against human SW-620 cells assessed as inhibition of cell proliferation by measuring decrease in fluorescence intensity incubated for 48 hrs by EdU incorporation based fluorescence microscopic analysis. The class given is functional. The settings on record: dose 1.25-5 µM.
Data set [8] has as its system SW-620. Kind of data set: Antiproliferative activity against human SW-620 cells assessed as change in F-actin cytoskeleton morphology at 1.25 uM incubated for 48 hrs by DAPI staining based laser confocal microscope analysis. The class given is functional, cell-based.
Data set [9] deals with SW-620. Kind of data set: Antiproliferative activity against human SW-620 cells assessed as change in F-actin cytoskeleton density at 2.5 to 5 uM incubated for 48 hrs by DAPI staining based laser confocal microscope analysis. The class given is functional, cell-based. The settings on record: dose 2.5-5 µM.
Data set [10] has as its system SW-620. Kind of data set: Induction of apoptosis in human SW-620 cells assessed as decrease in Bcl-2 expression at 1.25 to 5 uM incubated for 48 hrs by Western blotting analysis. In kind it is functional, cell-based. The settings on record: dose 1.25-5 µM.
For data set [11], the system named is SW-620. Kind of data set: Induction of apoptosis in human SW-620 cells assessed as increase in Bax expression at 1.25 to 5 uM incubated for 48 hrs by Western blotting analysis. The class given is functional, cell-based. The settings on record: dose 1.25-5 µM.
Data set [12] has as its system SW-620. Briefly: Induction of apoptosis in human SW-620 cells assessed as increase in Bax/Bcl-2 ratio incubated for 48 hrs by Western blotting analysis. The class given is functional, cell-based. The settings on record: dose 1.25-5 µM.
For data set [13], the system named is SW-620. Kind of data set: Induction of apoptosis in human SW-620 cells assessed as viable cells at 1.25 uM incubated for 48 hrs by Annexin V FITC/PI staining based flow cytometry analysis (reference value: 90.0 %). The class given is functional. The settings on record: read-out: Activity.
Data set [14] has as its system SW-620. Kind of data set: Induction of apoptosis in human SW-620 cells assessed as early apoptotic cells at 1.25 uM incubated for 48 hrs by Annexin V FITC/PI staining based flow cytometry analysis (reference value: 5.00 %). In kind it is functional.
Data set [15] concerns SW-620. Briefly: Induction of apoptosis in human SW-620 cells assessed as late apoptotic cells at 1.25 uM incubated for 48 hrs by Annexin V FITC/PI staining based flow cytometry analysis (reference value: 4.90 %). In kind it is functional.
For data set [16], the system named is SW-620. Briefly: Induction of apoptosis in human SW-620 cells assessed as necrotic cells at 1.25 uM incubated for 48 hrs by Annexin V FITC/PI staining based flow cytometry analysis (reference value: 0.057 %). In kind it is functional.
In data set [17] the test system is SW-620. Kind of data set: Induction of apoptosis in human SW-620 cells assessed as viable cells at 2.5 uM incubated for 48 hrs by Annexin V FITC/PI staining based flow cytometry analysis (reference value: 90.0 %). The settings on record: read-out: Activity. In kind it is functional.
Data set [18] deals with SW-620. Kind of data set: Induction of apoptosis in human SW-620 cells assessed as early apoptotic cells at 2.5 uM incubated for 48 hrs by Annexin V FITC/PI staining based flow cytometry analysis (reference value: 5.00 %). In kind it is functional.
Data set [19] relates to SW-620. Kind of data set: Induction of apoptosis in human SW-620 cells assessed as late apoptotic cells at 2.5 uM incubated for 48 hrs by Annexin V FITC/PI staining based flow cytometry analysis (reference value: 4.90 %). The class given is functional.
In data set [20] the test system is SW-620. Kind of data set: Induction of apoptosis in human SW-620 cells assessed as necrotic cells at 2.5 uM incubated for 48 hrs by Annexin V FITC/PI staining based flow cytometry analysis (reference value: 0.057 %). In kind it is functional.
In data set [21] the test system is SW-620. Kind of data set: Induction of apoptosis in human SW-620 cells assessed as viable cells at 5 uM incubated for 48 hrs by Annexin V FITC/PI staining based flow cytometry analysis (reference value: 90.0 %). The class given is functional. The settings on record: read-out: Activity.
For data set [22], the system named is SW-620. Kind of data set: Induction of apoptosis in human SW-620 cells assessed as early apoptotic cells at 5 uM incubated for 48 hrs by Annexin V FITC/PI staining based flow cytometry analysis (reference value: 5.00 %). The class given is functional.
Data set [23] has as its system SW-620. Kind of data set: Induction of apoptosis in human SW-620 cells assessed as late apoptotic cells at 5 uM incubated for 48 hrs by Annexin V FITC/PI staining based flow cytometry analysis (reference value: 4.90 %). In kind it is functional.
The test system of data set [24] is SW-620. Briefly: Induction of apoptosis in human SW-620 cells assessed as necrotic cells at 5 uM incubated for 48 hrs by Annexin V FITC/PI staining based flow cytometry analysis (reference value: 0.057 %). The class given is functional.

Structures are written as SMILES. Activity calls are given as the source filed them. The rule behind the calls is not given here. A value given as a limit tells only on which side of the number the result lay.

Consider `COc1cccc2c1C(=O)c1c(O)c3c(c(O)c1C2=O)C[C@@](O)(C(=O)CO)C[C@@H]3O[C@H]1C[C@H](N)[C@H](O)[C@H](C)O1` [DOXORUBICIN], for which the IC50 with SW-620 [1] is 2.3 µM.
Consider `CO[C@H]1C[C@H]([C@H](C)/C=C/[C@H](CO)C(C)(C)O)[C@]2(C)C1=C1C=CC3=CC(=O)CC[C@]3(C)[C@H]1C[C@H]2O`, for which the result in the data set on U-937 [2] was Active.
Same read-out and setting: for `C[C@H](/C=C/[C@H](CO)C(C)(C)O)[C@H]1CC(=O)C2=C3C=CC4=CC(=O)CC[C@]4(C)[C@H]3C[C@@H](O)[C@@]21C` the value was “Active”.
Take `C[C@H](/C=C/[C@H](CO)C(C)(C)O)[C@H]1CCC2=C3C=CC4=CC(=O)CC[C@]4(C)[C@H]3C[C@@H](O)[C@@]21C`: the result in the data set with SW-620 [3] and in the data set on U-937 [2] was Active. Further, the outcome in the data set on MDA-MB-231, in the data set on MCF7, in the data set with PANC-1, in the data set with SMMC-7721 and in the data set with A549 was inactive. In addition, the Activity result was “Dose-Dependent Effect” in the data set on SW-620 [1] and “Toxic” in the data set with U-937 [5]. The IC50 with SW-620 [1] amounted to 8.4 µM; with CCRF-CEM it was 5.7 µM; in the data set with Jurkat, 5.7 µM; in the data set on THP-1 it was 5.7 µM; in the data set on K562, 5.7 µM. Moreover, the inhibition at 48 h, 40 µM in [4] is under 7%.
In the data set with U-937 [6], `CC(=O)O[C@H]1C[C@H]([C@H](C)/C=C/[C@H](C)C(C)(O)CO)[C@]2(C)C1=C1C=CC3=CC(=O)CC[C@]3(C)[C@H]1C[C@H]2O` (stereo not given in full) displayed a concentration for a half-maximal effect (EC50) of 30 µM.
As to `C[C@H](/C=C/[C@H](CO)C(C)(C)O)[C@H]1CCC2=C3C=CC4=CC(=O)CC[C@]4(C)[C@H]3CC[C@@]21C`, the result in the data set on SW-620 [3], in the data set on SW-620 [8], with SW-620 [9], in the data set with SW-620 [10] and in the data set on SW-620 [11] was Active. Besides, the result in the data set with MDA-MB-231, in the data set on MCF7, in the data set on PANC-1, with SMMC-7721 and in the data set on A549 was inactive. For the same compound, the Activity entry in the data set with SW-620 [1] is “Dose-Dependent Effect”; with SW-620 [7], “Dose-Dependent Effect”; in the data set with SW-620 [12] it was “Dose-Dependent Effect”; in the data set on SW-620 [14] it was 6.2%; with SW-620 [15], 14.1%; in the data set with SW-620 [16], 0.63%. For the same compound, the Activity in the data set on SW-620 [18] was 12.4%; with SW-620 [19], 61.4%; in the data set with SW-620 [20] it was 2.55%; in the data set on SW-620 [22], 14.6%; in the data set with SW-620 [23] it was 80.8%; in the data set on SW-620 [24], 1.23%. Also, the half-maximal inhibitory concentration (IC50) with SW-620 [1] is 3.1 µM. The inhibition at 48 h, 40 µM in data set [4] was under 7%. In the data set on SW-620 [13], the viability at 1.25 µM is 79.1%. The viability at 2.5 µM with SW-620 [17] is 23.6%. For the same compound, the viability at 5 µM with SW-620 [21] was 3.35%.
For `C[C@H](/C=C/[C@H](CO)C(C)(C)O)[C@H]1C[C@H](O)C2=C3C=CC4=CC(=O)CC[C@]4(C)[C@H]3C[C@@H](O)[C@@]21C`, the outcome with U-937 [2] was Active.
For `CC(=O)O[C@H]1C[C@H]([C@H](C)/C=C/[C@H](CO)C(C)(C)O)[C@]2(C)C1=C1C=CC3=CC(=O)CC[C@]3(C)[C@H]1C[C@H]2O`, the result in the data set on U-937 [2] was Active.
Regarding `C[C@H](/C=C/[C@H](C)C(C)(C)O)[C@H]1C[C@H](O)C2=C3C=CC4=CC(=O)CC[C@]4(C)[C@H]3C[C@@H](O)[C@@]21C`, the outcome in the data set with U-937 [2] was Active.
With `CO[C@@H]1C[C@H]([C@H](C)/C=C/[C@H](CO)C(C)(C)O)[C@]2(C)C1=C1C=CC3=CC(=O)CC[C@]3(C)[C@H]1C[C@H]2O`, the result with U-937 [2] was Active.
